Nc1ccc(S(=O)(=O)Nc2ncccn2)cc1
solubility (mole fraction)
Settings | 278.15 K | 283.15 K | 288.15 K | 293.15 K | 298.15 K | 303.15 K | 308.15 K | 313.15 K
in NMP | 0.0118 | 0.0137 | 0.0153 | 0.018 | 0.0194 | 0.0224 | 0.132 | 0.137
in water | 1.89e-06 | 2.51e-06 | 3.18e-06 | 3.96e-06 | 5.13e-06 | 6.32e-06 | 8.03e-06 | 9.98e-06

From BigSolDB 2.1
